Results on 7 molecules are retold here after ChEMBL document CHEMBL1201862, “PubChem BioAssay data set” (2004).

Each structure is given as a SMILES string.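 In this assay, cells in 96-well plates receive the compound at five concentrations for 48 hours. Endpoints are linearly interpolated between the surrounding concentrations. GI50 = concentration required for 50% inhibition of growth.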 Activity calls are given as the source filed them. Cut-off read from the data, not from the text of the source: active = GI50 up to about 1.1 µM and inactive = higher. Some results are limits rather than exact numbers.

Test in all cases: growth of human tumour cells (NCI), 48 h
Assay [1] concerns NCI-H460.
Assay [2] deals with OVCAR-4.
Assay [3] has as its system SK-MEL-5.
The test system of assay [4] is LOX IMVI.
The subject of assay [5] is OVCAR-8.
In assay [6] the test system is EKVX.
Assay [7] deals with HOP-92.
For assay [8], the system named is OVCAR-5.
Assay [9] has as its system SN12C.
Assay [10] concerns MOLT-4.
Assay [11] deals with OVCAR-3.
Assay [12] relates to UACC-62.
Assay [13] has as its system HL-60.
Assay [14] deals with Malme-3M.
For assay [15], the system named is HCC 2998.
Assay [16] relates to UO-31.
Assay [17] relates to SK-MEL-2.
The subject of assay [18] is A498.
For assay [19], the system named is ACHN.
Assay [20] concerns HCT-116.

For `O=c1ccc(=O)c2c(=O)c3ccccc3c(=O)c1=2`, the GI50 in assay [1] was 29.3 µM (inactive); in assay [2], 61 µM (inactive); in [3], 15.7 µM (inactive); in assay [4], 42.6 µM (inactive); in [5], 27.5 µM (inactive); in assay [6] it was 28.7 µM (inactive). The GI50 is > 100 µM (inactive) in [7]; > 100 µM (inactive) in [8]; 38.5 µM (inactive) in [9]; 23 µM (inactive) in assay [10]; 21.2 µM (inactive) in assay [11]; 36.7 µM (inactive) in assay [12]. The GI50 in assay [13] is 17.2 µM (inactive); in [14] it was 26.5 µM (inactive); in assay [15], 54.7 µM (inactive); in assay [16] it was 57.8 µM (inactive); in assay [17], 20.8 µM (inactive); in assay [18], > 100 µM (inactive). Besides, the values for the GI50 in assay [19] and in [20] were 60.3 µM (inactive) and 20.7 µM (inactive), respectively.
Consider `CC(C)C1C(=O)N(c2c(F)c(F)c(F)c(F)c2F)C(=S)N1CC[S+]([O-])c1ccccc1` (stereo not given), for which the GI50 in assay [1] was 19.3 µM (inactive); in assay [2], 16.3 µM (inactive); in assay [3], 14.2 µM (inactive); in [4], 14.4 µM (inactive); in [5], 17.1 µM (inactive); in [6], 16.4 µM (inactive). For the same molecule, the GI50 in [7] is 9.77 µM (inactive); in assay [8], 17.7 µM (inactive); in [9], 15.8 µM (inactive); in assay [10] it was 21.2 µM (inactive); in [11] it was 16.6 µM (inactive); in assay [12] it was 19.7 µM (inactive). The GI50 in [13] was 6.84 µM (inactive); in assay [14] it was 15.7 µM (inactive); in [15], 8.47 µM (inactive); in assay [16] it was 14.8 µM (inactive); in assay [17], 17.5 µM (inactive); in assay [18] it was 16.6 µM (inactive). Also, the values for the GI50 in assay [19] and in [20] were 18.6 µM (inactive) and 18.8 µM (inactive), respectively.
As to `CC(C)=CCc1c2c(c(O)c3c(=O)c4c(oc13)-c1ccc(O)cc1OC4C=C(C)C)C=CC(C)(C)O2` (stereo not given), the GI50 in assay [1] is 13.7 µM (inactive); in assay [2], 11.6 µM (inactive); in assay [3], 14.8 µM (inactive); in assay [4] it was 8.61 µM (inactive); in assay [5], 13.3 µM (inactive); in [6], 14.9 µM (inactive). Besides, the GI50 is 7.11 µM (inactive) in [7]; 20.2 µM (inactive) in assay [8]; 6.35 µM (inactive) in [9]; 12.3 µM (inactive) in [11]; 13.7 µM (inactive) in assay [12]; 15.2 µM (inactive) in assay [13]. Further, the GI50 in assay [14] is 19.3 µM (inactive); in assay [15] it was 3.34 µM (inactive); in assay [16] it was 18.3 µM (inactive); in assay [17] it was 12.6 µM (inactive); in assay [18] it was 19.5 µM (inactive); in [19], 11.8 µM (inactive). Besides, in assay [20], the GI50 is 8.45 µM (inactive).
Take `Cc1ccc(OCC2OC(n3cnc4c(N(C)C)nc(Br)nc43)CC2Oc2ccc(C)cc2)cc1` (stereo not given): the GI50 in [1], in assay [2], in [3], in assay [4], in assay [5] and in [6] was > 100 µM (inactive) throughout. Also, the GI50 in assay [7], in [8], in assay [9], in assay [11], in assay [12] and in assay [13] was > 100 µM (inactive) throughout. The GI50 in assay [14], in [15], in [16], in assay [17], in assay [18] and in assay [19] was > 100 µM (inactive) in each case. The GI50 in [20] is > 100 µM (inactive).
`CCC12CCC(O)C1N(C)CCC2Sc1ccccc1` (stereo not given): the GI50 was > 100 µM (inactive) in assay [1]; > 100 µM (inactive) in [2]; 33 µM (inactive) in assay [3]; > 100 µM (inactive) in assay [4]; > 100 µM (inactive) in assay [5]; > 100 µM (inactive) in assay [6]. Moreover, the GI50 in [7] was 28.6 µM (inactive); in assay [9] it was > 100 µM (inactive); in [10], 28.5 µM (inactive); in [11], > 100 µM (inactive); in assay [12] it was > 100 µM (inactive); in assay [13], 22.9 µM (inactive). The GI50 is 35.2 µM (inactive) in assay [14]; 29.9 µM (inactive) in [15]; 28.8 µM (inactive) in assay [16]; > 100 µM (inactive) in assay [17]; > 100 µM (inactive) in assay [18]; > 100 µM (inactive) in assay [19]. In assay [20], the GI50 was 70 µM (inactive).
Regarding `COc1ccc(/C=C2/CSCC3=C2N=C(S)NC3c2ccc(OC)c(OC)c2OC)c(OC)c1OC` (stereo not given), the GI50 was 27.6 µM (inactive) in assay [1]; 2.61 µM (inactive) in assay [2]; 11.1 µM (inactive) in assay [3]; 15.4 µM (inactive) in assay [4]; 7.52 µM (inactive) in assay [5]; 51.3 µM (inactive) in assay [6]. In addition, the GI50 in assay [7] is < 0.01 µM (active); in assay [8], 25.2 µM (inactive); in assay [9], 17 µM (inactive); in assay [10], 3.05 µM (inactive); in [11], 43.7 µM (inactive); in [12], 16.8 µM (inactive). The GI50 in [13] was 6.34 µM (inactive); in assay [14], 23.2 µM (inactive); in assay [15], 31.3 µM (inactive); in assay [17] it was 22.8 µM (inactive); in assay [18], 19 µM (inactive); in assay [19], 19 µM (inactive). In assay [20], the GI50 was 8.09 µM (inactive).
On to `Cc1ccc(S(=O)(=O)N2CCSCCSCCN(S(=O)(=O)c3ccc(C)cc3)CCN(S(=O)(=O)c3ccc(C)cc3)CC2)cc1`, for which the GI50 in assay [1], in assay [2], in [3], in assay [4], in [5] and in assay [6] was > 100 µM (inactive) in each case. In addition, the GI50 in [7], in [8], in assay [9], in [10], in [11] and in [13] was > 100 µM (inactive) in each case. In addition, the GI50 in assay [14], in assay [15], in assay [16], in [17], in [18] and in assay [19] was > 100 µM (inactive) throughout. Besides, the GI50 in [20] is > 100 µM (inactive).
